For orientation: EC50 means the midpoint of the concentration-response curve.

Molecules are shown by their SMILES. Read-outs that look alike come from different tables or passages of the source.

For one assay, the target named is T1, human CB2 receptors (Homo sapiens, UniProt P34972).
T1 construct: expressed in transfected cells; host or cells: CHO cells
The assay is described as follows: functional cAMP assay, CHO cells expressing human CB2. The class given is cell-based. On the procedure:
(§1) CHO cells expressing human CB1 or CB2 receptors are seeded 17-24 hours prior to the experiment 50.000 cells per well in a black 96 well plate with flat clear bottom (Corning Costar #3904) in DMEM (Invitrogen No. 31331), 1×HT supplement, with 10% fetal calf serum and incubated at 5% CO2 and 37° C. in a humidified incubator. The growth medium was exchanged with Krebs Ringer Bicarbonate buffer with 1 mM IBMX and incubated at 30° C. for 30 min. Compounds were added to a final assay volume of 100 μl and incubated for 30 min at 30° C. Using the cAMP-Nano-TRF detection kit the assay (Roche Diagnostics) was stopped by the addition of 50 μl lysis reagent (Tris, NaCl, 1.5% Triton X100, 2.5% NP40, 10% NaN3) and 50 μl detection solutions (20 μM mAb Alexa700-cAMP 1:1, and 48 μM Ruthenium-2-AHA-cAMP) and shaken for 2 h at room temperature. The time-resolved energy transfer is measured by a TRF reader (Evotec Technologies GmbH), equipped with a ND:YAG laser as excitation source. The plate is measured twice with the excitation at 355 nm and at the emission with a delay of 100 ns and a gate of 100 ns, total exposure time 10 s at 730 (bandwidth 30 nm) or 645 nm (bandwidth 75 nm), respectively. The FRET signal is calculated as follows: FRET=T730-Alexa730-P(T645-B645) with P=Ru730-B730/Ru645-B645, where T730 is the test well measured at 730 nM, T645 is the test well measured at 645 nm, B730 and B645 are the buffer controls at 730 nm and 645 nm, respectively. cAMP content is determined from the function of a standard curve spanning from 10 μM to 0.13 nM cAMP.
(§2) EC50 values were determined using Activity Base analysis (ID Business Solution, Limited). The EC50 values for a wide range of cannabinoid agonists generated from this assay were in agreement with the values published in the scientific literature.
For orientation: Changes in cAMP serve as a functional read-out for many G protein-coupled receptors.

The next assay concerns the target T2, human CB1 receptors (Homo sapiens, UniProt P21554).
T2 construct: expressed in transfected cells; host or cells: CHO cells
Put plainly: functional cAMP assay, CHO cells expressing human CB1. Type of assay: cell-based. The procedure:
as §1, §2

The mark [1] stands for this setting: functional cAMP assay, CHO cells expressing human CB2, read-out: Human CB2 EC50.

T1 sequence (P34972 whole entry): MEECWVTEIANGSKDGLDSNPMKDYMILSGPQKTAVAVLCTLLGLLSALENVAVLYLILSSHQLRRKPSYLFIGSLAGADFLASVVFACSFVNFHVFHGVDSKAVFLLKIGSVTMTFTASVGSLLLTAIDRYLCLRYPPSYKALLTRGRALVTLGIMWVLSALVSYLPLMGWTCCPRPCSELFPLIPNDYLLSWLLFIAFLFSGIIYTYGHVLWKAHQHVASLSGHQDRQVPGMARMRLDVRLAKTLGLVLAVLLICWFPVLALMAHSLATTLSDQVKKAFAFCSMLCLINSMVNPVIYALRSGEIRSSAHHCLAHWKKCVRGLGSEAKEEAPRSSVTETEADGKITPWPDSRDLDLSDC
T2 sequence (P21554 whole entry): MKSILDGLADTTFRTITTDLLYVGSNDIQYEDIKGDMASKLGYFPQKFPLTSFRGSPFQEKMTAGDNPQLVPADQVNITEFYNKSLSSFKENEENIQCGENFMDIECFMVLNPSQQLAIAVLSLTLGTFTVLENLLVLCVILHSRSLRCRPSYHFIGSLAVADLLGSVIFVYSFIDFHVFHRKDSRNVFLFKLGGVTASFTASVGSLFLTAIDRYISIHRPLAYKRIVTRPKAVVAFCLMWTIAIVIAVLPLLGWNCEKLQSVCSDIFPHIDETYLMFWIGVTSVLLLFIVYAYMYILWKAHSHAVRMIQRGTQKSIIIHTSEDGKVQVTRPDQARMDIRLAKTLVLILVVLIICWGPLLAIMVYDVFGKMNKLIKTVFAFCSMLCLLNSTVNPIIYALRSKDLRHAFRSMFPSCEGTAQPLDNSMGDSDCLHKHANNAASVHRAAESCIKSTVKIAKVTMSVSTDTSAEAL

As to `Cc1nc(C(NC(=O)c2ccc(C3CC3)c(OCC(F)(F)F)c2)C2(C)COC2)no1` (centres unmarked) [Example 67, 4-Cyclopropyl-N-[(5-methyl-1,2,4-oxadiazol-3-yl)(3-methyloxetan-3-yl)methyl]-3-(2,2,2-trifluoroethoxy)benzamide], the half-maximal effective concentration (EC50) at human CB2 receptors (setting [1]) was 263 nM; at human CB1 receptors it was greater than 10000 nM.

As for `CCC(CC)(NC(=O)c1ccc(C2CC2)c(OCC2CC2)c1)C(=O)N1CC(F)(F)C1` [Example 9, 4-Cyclopropyl-3-(cyclopropylmethoxy)-N-[3-(3,3-difluoroazetidine-1-carbonyl)pentan-3-yl]benzamide], the EC50 on human CB2 receptors was 7.56 nM; at human CB1 receptors it was greater than 10000 nM.

On to `C[C@@](CC(N)=O)(NC(=O)c1ccc(C2CC2)c(-c2ccc(F)nc2)c1)C1CC1` [Example 53, N-[(2S)-4-Amino-2-cyclopropyl-4-oxobutan-2-yl]-4-cyclopropyl-3-(6-fluoropyridin-3-yl)benzamide], for which the values for the EC50 on human CB2 receptors and on human CB1 receptors were 184 nM and greater than 10000 nM, respectively.

Take `Cc1nc(C(C)(C)NC(=O)c2ccc(C)c(OCC3CC3)c2)no1` [Example 2, 3-(Cyclopropylmethoxy)-4-methyl-N-[2-(5-methyl-1,2,4-oxadiazol-3-yl)propan-2-yl]benzamide]: the EC50 at human CB2 receptors (setting [1]) is 492 nM; on human CB1 receptors, greater than 10000 nM.

In the case of `Cc1nc(C(NC(=O)c2ccc(C3CC3)c(OC(C)C)c2)C2(C)COC2)no1` (centres unmarked) [Example 68, 4-Cyclopropyl-N-[(5-methyl-1,2,4-oxadiazol-3-yl)(3-methyloxetan-3-yl)methyl]-3-[(propan-2-yl)oxy]benzamide], the values for the EC50 at human CB2 receptors (setting [1]) and on human CB1 receptors were 264 nM and greater than 10000 nM, respectively.

With `CCC(CC)(NC(=O)c1ccc(C2CC2)c(OCC2CC2)c1)C(=O)O` [Example 8, 2-[4-Cyclopropyl-3-(cyclopropylmethoxy)benzamido]-2-ethylbutanoic acid], the EC50 on human CB2 receptors (setting [1]) is 2170 nM; at human CB1 receptors it was greater than 10000 nM.

Consider `NC(=O)CC1(NC(=O)c2ccc(C3CC3)c(OCC3CC3)c2)COC1` [Example 15, N-[3-(2-Amino-2-oxoethyl)oxetan-3-yl]-4-cyclopropyl-3-(cyclopropylmethoxy)benzamide], for which the EC50 was 34.1 nM at human CB2 receptors and greater than 10000 nM at human CB1 receptors.

Turning to `NC(=O)[C@@H]1CC(F)(F)CN1C(=O)c1ccc(C2CC2)c(OCC(F)(F)F)c1` [Example 42, 1-[4-Cyclopropyl-3-(2,2,2-trifluoroethoxy)benzoyl]-4,4-difluoro-L-prolinamide], the EC50 on human CB2 receptors (setting [1]) was 134 nM; at human CB1 receptors, greater than 10000 nM.

Take `CC(C)C[C@@H](CO)NC(=O)c1ccc(N2CC(F)(F)C2)c(OCC2CC2)c1` [Example 13, 3-(Cyclopropylmethoxy)-4-(3,3-difluoroazetidin-1-yl)-N-[(2S)-1-hydroxy-4-methylpentan-2-yl]benzamide]: the figures for the EC50 on human CB2 receptors and at human CB1 receptors were 21.8 nM and greater than 10000 nM, respectively.

Take `CC(C)(C)c1nc(-c2ccc(C3CC3)c(OCCF)c2)no1` [Example 30, 5-tert-Butyl-3-[4-cyclopropyl-3-(2-fluoroethoxy)phenyl]-1,2,4-oxadiazole]: the EC50 at human CB2 receptors is 38.3 nM; on human CB1 receptors it was greater than 10000 nM.

As to `Cc1nc(C(C)(C)NC(=O)c2ccc(C3CC3)c(OCC3CC3)c2)no1` [Example 3, 4-Cyclopropyl-3-(cyclopropylmethoxy)-N-[2-(5-methyl-1,2,4-oxadiazol-3-yl)propan-2-yl]benzamide], the EC50 on human CB2 receptors (setting [1]) is 122 nM; on human CB1 receptors, greater than 10000 nM.

For the compound `C[C@](CC(N)=O)(NC(=O)c1ccc(C2CC2)c(OCC(F)(F)F)c1)C1CC1` [Example 36, (+)-N-[4-amino-2-cyclopropyl-4-oxobutan-2-yl]-4-cyclopropyl-3-(2,2,2-trifluoroethoxy)benzamide], the EC50 at human CB2 receptors is 33.9 nM; at human CB1 receptors, greater than 10000 nM.

Regarding `CNC(=O)[C@@H](NC(=O)c1ccc(C2CC2)c(N2CCC(F)(F)C2)c1)C(C)(C)C` [Example 66, 4-Cyclopropyl-3-(3,3-difluoropyrrolidin-1-yl)-N-[(2S)-3,3-dimethyl-1-(methylamino)-1-oxobutan-2-yl]benzamide], the EC50 at human CB2 receptors stood at 0.48 nM; on human CB1 receptors, 42.1 nM.

These data come from patent US11339120B2, “Phenyl derivatives as cannabinoid receptor 2 agonists” (priority 2015, dated 2022).
